Data reported in patent US9169254B2, “Spiroimidazolone derivative” (Chugai Seiyaku Kabushiki Kaisha, priority 2009, dated 2015).

The molecules below were run against T1, human PTH1 receptor (Homo sapiens, UniProt Q03431) (assay: In vitro cAMP signal activity in HKRK-B7 cells (LLC-PK1 cells overexpressing the human PTH1 receptor)). Conditions: HKRK-B7 cells; compound at 1×10^−3 M; cAMP produced as percentage of that produced by hPTH(1-34) at 100 nM.
T1 sequence (Q03431 27-593): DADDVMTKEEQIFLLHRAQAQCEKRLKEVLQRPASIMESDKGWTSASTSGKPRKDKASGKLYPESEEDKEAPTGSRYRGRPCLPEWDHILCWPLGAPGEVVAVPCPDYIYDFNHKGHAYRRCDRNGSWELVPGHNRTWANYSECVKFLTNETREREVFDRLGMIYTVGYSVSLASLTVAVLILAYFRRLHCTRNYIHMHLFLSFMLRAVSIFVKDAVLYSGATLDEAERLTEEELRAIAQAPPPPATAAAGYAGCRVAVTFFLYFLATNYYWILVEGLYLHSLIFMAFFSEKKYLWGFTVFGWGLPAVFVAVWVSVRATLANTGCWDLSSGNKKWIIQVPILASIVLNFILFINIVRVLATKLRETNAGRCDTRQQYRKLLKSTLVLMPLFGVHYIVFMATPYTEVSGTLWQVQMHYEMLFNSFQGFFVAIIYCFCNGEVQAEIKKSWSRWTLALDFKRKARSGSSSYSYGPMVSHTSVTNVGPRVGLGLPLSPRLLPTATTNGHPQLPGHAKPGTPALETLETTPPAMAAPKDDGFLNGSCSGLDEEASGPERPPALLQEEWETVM
Type: cell-based

Row | cAMP production activity (%) | Structure (SMILES)
1 | 66% | COc1ccc(-c2ccccc2CCS(=O)(=O)N2CCC3(CC2)N=C(C2CCCCC2)NC3=O)cn1 [Compound 339, 2-cyclohexyl-8-{2-[2-(6-methoxy-pyridin-3-yl)-phenyl]-ethanesulfonyl}-1,3,8-triaza-spiro[4.5]dec-1-en-4-one]
2 | 67% | Cn1cc(-c2ccccc2CCS(=O)(=O)N2CCC3(CC2)N=C(C2CCCCC2)NC3=O)cn1 [Compound 340, 2-cyclohexyl-8-{2-[2-(1-methyl-1H-pyrazol-4-yl)-phenyl]-ethanesulfonyl}-1,3,8-triaza-spiro[4.5]dec-1-en-4-one]
3 | 93% | CC(=O)N(CCO)c1ccc(-c2ccc(S(=O)(=O)N3CCC4(CC3)N=C(c3ccc(F)c(C(F)(F)F)c3)NC4=O)s2)c(C)c1 [Compound 342, N-(4-{5-[2-(4-Fluoro-3-trifluoromethyl-phenyl)-4-oxo-1,3,8-triaza-spiro[4.5]dec-1-ene-8-sulfonyl]-thiophen-2-yl}-3-methyl-phenyl)-N-(2-hydroxy-ethyl)-acetamide]
4 | 13% | O=C1NC(C2CCCCC2)=NC12CCN(S(=O)(=O)/C=C/c1nccs1)CC2 [Compound 343, 2-Cyclohexyl-8-((E)-2-thiazol-2-yl-ethenesulfonyl)-1,3,8-triaza-spiro[4.5]dec-1-en-4-one]
5 | 35% | O=C1NC(C2CCCCC2)=NC12CCN(S(=O)(=O)/C=C/C1CCCC1)CC2 [Compound 344, 2-cyclohexyl-8-((E)-2-cyclopentyl-ethenesulfonyl)-1,3,8-triaza-spiro[4.5]dec-1-en-4-one]
6 | 21% | O=C1NC(C2CCCCC2)=NC12CCN(S(=O)(=O)CCc1nccs1)CC2 [Compound 345, 2-Cyclohexyl-8-(2-thiazol-2-yl-ethanesulfonyl)-1,3,8-triaza-spiro[4.5]dec-1-en-4-one]
7 | 28% | COc1ccc(CCCS(=O)(=O)N2CCC3(CC2)N=C(C2CCCCC2)NC3=O)cc1 [Compound 346, 2-Cyclohexyl-8-[3-(4-methoxy-phenyl)-propane-1-sulfonyl]-1,3,8-triaza-spiro[4.5]dec-1-en-4-one]
8 | 23% | O=C(NCc1ccccc1)c1ccccc1S(=O)(=O)N1CCC2(CC1)N=C(C1CCCCC1)NC2=O [Compound 347, N-Benzyl-2-(2-cyclohexyl-4-oxo-1,3,8-triaza-spiro[4.5]dec-1-ene-8-sulfonyl)-benzamide]
9 | 5.6% | O=C(c1cccc(C2=NC3(CCN(S(=O)(=O)c4cccc(Cl)c4)CC3)C(=O)N2)c1)N1CCOCC1 [Compound 348, 8-(3-Chloro-benzenesulfonyl)-2-[3-(morpholine-4-carbonyl)-phenyl]-1,3,8-triaza-spiro[4.5]dec-1-en-4-one]
10 | 11% | CN(C(=O)c1cccc(C2=NC3(CCN(S(=O)(=O)c4cccc(Cl)c4)CC3)C(=O)N2)c1)c1ccccc1 [Compound 349, 3-[8-(3-chloro-benzenesulfonyl)-4-oxo-1,3,8-triaza-spiro[4.5]dec-1-en-2-yl]-N-methyl-N-phenyl-benzamide]
11 | 5.5% | O=C(NCc1ccccc1)c1cccc(C2=NC3(CCN(S(=O)(=O)c4cccc(Cl)c4)CC3)C(=O)N2)c1 [Compound 350, N-benzyl-3-[8-(3-chloro-benzenesulfonyl)-4-oxo-1,3,8-triaza-spiro[4.5]dec-1-en-2-yl]-benzamide]
12 | 7.4% | CN(C)C(=O)c1cccc(C2=NC3(CCN(S(=O)(=O)c4cccc(Cl)c4)CC3)C(=O)N2)c1 [Compound 351, 3-[8-(3-chloro-benzenesulfonyl)-4-oxo-1,3,8-triaza-spiro[4.5]dec-1-en-2-yl]-N,N-dimethyl-benzamide]
13 | 19% | Cc1cc(C(=O)N2CCN(S(C)(=O)=O)CC2)ccc1CCS(=O)(=O)N1CCC2(CC1)N=C(c1cccc(C(F)(F)F)c1)NC2=O [Compound 352, 8-{2-[4-(4-Methanesulfonyl-piperazine-1-carbonyl)-2-methyl-phenyl]-ethanesulfonyl}-2-(3-trifluoromethyl-phenyl)-1,3,8-triaza-spiro[4.5]dec-1-en-4-one]
14 | 120% | CC(=O)N[C@@H]1CCN(C(=O)c2ccc(CCS(=O)(=O)N3CCC4(CC3)N=C(c3cccc(C(F)(F)F)c3)NC4=O)c(C)c2)C1 [Compound 353, N—[(R)-1-(3-methyl-4-{2-[4-oxo-2-(3-trifluoromethyl-phenyl)-1,3,8-triaza-spiro[4.5]dec-1-ene-8-sulfonyl]-ethyl}-benzoyl)-pyrrolidin-3-yl]-acetamide]
15 | 27% | Cc1cc(C(=O)N2CCC[C@H]2C(F)(F)F)ccc1CCS(=O)(=O)N1CCC2(CC1)N=C(c1cccc(C(F)(F)F)c1)NC2=O [Compound 354, 8-{2-[2-methyl-4-((S)-2-trifluoromethyl-pyrrolidine-1-carbonyl)-phenyl]-ethanesulfonyl}-2-(3-trifluoromethyl-phenyl)-1,3,8-triaza-spiro[4.5]dec-1-en-4-one]
16 | 84% | Cc1cc(C(=O)N2CC[C@@H](O)C2)ccc1CCS(=O)(=O)N1CCC2(CC1)N=C(c1cccc(C(F)(F)F)c1)NC2=O [Compound 355, 8-{2-[4-((R)-3-hydroxy-pyrrolidine-1-carbonyl)-2-methyl-phenyl]-ethanesulfonyl}-2-(3-trifluoromethyl-phenyl)-1,3,8-triaza-spiro[4.5]dec-1-en-4-one]
17 | 78% | Cc1cc(C(=O)N2CCC[C@H]2CO)ccc1CCS(=O)(=O)N1CCC2(CC1)N=C(c1cccc(C(F)(F)F)c1)NC2=O [Compound 356, 8-{2-[4-((S)-2-hydroxymethyl-pyrrolidine-1-carbonyl)-2-methyl-phenyl]-ethanesulfonyl}-2-(3-trifluoromethyl-phenyl)-1,3,8-triaza-spiro[4.5]dec-1-en-4-one]
18 | 78% | Cc1cc(C(=O)N2CCC(CCO)CC2)ccc1CCS(=O)(=O)N1CCC2(CC1)N=C(c1cccc(C(F)(F)F)c1)NC2=O [Compound 357, 8-(2-{4-[4-(2-hydroxy-ethyl)-piperidine-1-carbonyl]-2-methyl-phenyl}-ethanesulfonyl)-2-(3-trifluoromethyl-phenyl)-1,3,8-triaza-spiro[4.5]dec-1-en-4-one]
19 | 71% | Cc1noc(C2CCN(C(=O)c3ccc(CCS(=O)(=O)N4CCC5(CC4)N=C(c4cccc(C(F)(F)F)c4)NC5=O)c(C)c3)CC2)n1 [Compound 358, 8-(2-{2-methyl-4-[4-(3-methyl-[1,2,4]oxadiazol-5-yl)-piperidine-1-carbonyl]-phenyl}-ethanesulfonyl)-2-(3-trifluoromethyl-phenyl)-1,3,8-triaza-spiro[4.5]dec-1-en-4-one]
20 | 65% | Cc1cc(C(=O)N2CCN(c3ncccn3)CC2)ccc1CCS(=O)(=O)N1CCC2(CC1)N=C(c1cccc(C(F)(F)F)c1)NC2=O [Compound 359, 8-{2-[2-methyl-4-(4-pyrimidin-2-yl-piperazine-1-carbonyl)-phenyl]-ethanesulfonyl}-2-(3-trifluoromethyl-phenyl)-1,3,8-triaza-spiro[4.5]dec-1-en-4-one]
21 | 62% | Cc1cc(C(=O)N2CCN(S(=O)(=O)N(C)C)CC2)ccc1CCS(=O)(=O)N1CCC2(CC1)N=C(c1cccc(C(F)(F)F)c1)NC2=O [Compound 360, 4-(3-methyl-4-{2-[4-oxo-2-(3-trifluoromethyl-phenyl)-1,3,8-triaza-spiro[4.5]dec-1-ene-8-sulfonyl]-ethyl}-benzoyl)-piperazine-1-sulfonic acid dimethylamide]
22 | 82% | Cc1cc(C(=O)N2CCN(c3ccccn3)CC2)ccc1CCS(=O)(=O)N1CCC2(CC1)N=C(c1cccc(C(F)(F)F)c1)NC2=O [Compound 361, 8-{2-[2-methyl-4-(4-pyridin-2-yl-piperazine-1-carbonyl)-phenyl]-ethanesulfonyl}-2-(3-trifluoromethyl-phenyl)-1,3,8-triaza-spiro[4.5]dec-1-en-4-one]
23 | 97% | Cc1cc(C(=O)N2CCN(CCOCCO)CC2)ccc1CCS(=O)(=O)N1CCC2(CC1)N=C(c1cccc(C(F)(F)F)c1)NC2=O [Compound 362, 8-[2-(4-{4-[2-(2-hydroxy-ethoxy)-ethyl]-piperazine-1-carbonyl}-2-methyl-phenyl)-ethanesulfonyl]-2-(3-trifluoromethyl-phenyl)-1,3,8-triaza-spiro[4.5]dec-1-en-4-one]
24 | 67% | Cc1cc(C(=O)N2CCN(CCN3CCOCC3)CC2)ccc1CCS(=O)(=O)N1CCC2(CC1)N=C(c1cccc(C(F)(F)F)c1)NC2=O [Compound 363, 8-(2-{2-methyl-4-[4-(2-morpholin-4-yl-ethyl)-piperazine-1-carbonyl]-phenyl}-ethanesulfonyl)-2-(3-trifluoromethyl-phenyl)-1,3,8-triaza-spiro[4.5]dec-1-en-4-one]

Row | Structure (SMILES) | cAMP production activity (%)
25 | Cc1cc(OCCC(O)CO)ccc1-c1ccc(S(=O)(=O)N2CCC3(CC2)N=C(c2ccc(F)c(C(F)(F)F)c2)NC3=O)s1 (stereo not shown) [Compound 341, 8-{5-[4-(3,4-Dihydroxy-butoxy)-2-methyl-phenyl]-thiophene-2-sulfonyl}-2-(4-fluoro-3-trifluoromethyl-phenyl)-1,3,8-triaza-spiro[4.5]dec-1-en-4-one] | 62%
